By LC50 is commonly meant the concentration lethal to half of the exposed cells or organisms.

≈ marks a conversion by molar mass, not a printed value. Like-named read-outs stand apart in the source and are kept apart here.

This is an account of results in patent publication US5882851A, “Cytochrome P-450 monooxygenases” (Novartis Finance Corporation, priority 1993, dated 1999).

The target in data set [1] is T1, P-450TYR expressed in E. coli (Sorghum bicolor, UniProt Q43135).
T1 construct: in which the 35 N-terminal amino acids are replaced by the nine N-terminal amino acids from bovine 17α hydroxylase; nine N-terminal amino acids from bovine 17alpha-hydroxylase (replace the 35 N-terminal residues) (N); made in house; host or cells: E. coli JM109, vector pSP19g10L
T1 sequence (Q43135 other isoform, or with tags, fused parts or gaps): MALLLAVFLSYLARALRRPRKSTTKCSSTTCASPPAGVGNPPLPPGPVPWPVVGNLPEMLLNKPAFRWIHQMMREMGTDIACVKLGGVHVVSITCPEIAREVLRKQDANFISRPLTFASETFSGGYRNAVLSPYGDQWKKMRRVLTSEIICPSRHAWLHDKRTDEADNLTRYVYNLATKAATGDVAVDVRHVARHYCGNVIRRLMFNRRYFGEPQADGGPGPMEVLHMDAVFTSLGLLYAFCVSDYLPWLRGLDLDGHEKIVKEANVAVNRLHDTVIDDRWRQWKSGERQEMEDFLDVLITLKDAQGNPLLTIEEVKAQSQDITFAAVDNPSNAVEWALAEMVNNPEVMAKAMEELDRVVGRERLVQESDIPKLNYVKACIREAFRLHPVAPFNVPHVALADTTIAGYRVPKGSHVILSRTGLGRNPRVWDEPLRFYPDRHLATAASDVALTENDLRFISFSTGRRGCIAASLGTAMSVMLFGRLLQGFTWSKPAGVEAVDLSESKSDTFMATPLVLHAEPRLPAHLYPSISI
In words: Substrate binding spectra of P-450TYR expressed in E. coli. The source says: (§1) Cytochrome P-450TYR in the oxidized state has a strong absorption peak at 420 nm, representing the low spin state of the iron of the heme group. The binding of a ligand to the heme group shifts the absorption maximum by changing the spin state of the iron. Binding of tyrosine at the catalytic site of cytochrome P-450TYR induces a change of the spin state of the oxidized iron from low to high spin, and thereby changes the absorption maximum from 420 nm to 390 nm producing a type I spectrum (Jefcoate, Methods in Enzymology 52:258-279, 1978). The following experimental procedure is used to obtain the substrate binding spectrum: two identical cuvettes containing a buffered solution of the isolated cytochrome P-450 are prepared. The substrate of the enzyme is added to the sample cuvette whereas the same volume of buffer is added to the other cuvette. The difference spectrum is then recorded in an SLM-Aminco DW2c spectrophotometer. The absorption difference, A390-420, is proportional to the concentration of cytochrome P-450TYR with a bound substrate at its active site. If a saturating concentration of substrate is added to the sample cuvette, the absorption difference is proportional to the concentration of the substrate specific cytochrome P-450 in the cuvettes. The saturating concentration of the substrate is determined by titrating the cytochrome P-450 sample with increasing amounts of substrate and monitoring A390-420.
A modified cytocrome P-450TYR, in which the 35 N-terminal amino acids are replaced by the nine N-terminal amino acids from bovine 17α hydroxylase is introduced into the expression vector pSP19g10L which can be obtained from Dr. Henry Barnes (La Jolla, Calif.). This plasmid contains the lac Z promoter fused with the known short leader sequence (g10L) of gene 10 from bacteriophage T7 (Olin et al, 1988). A construct containing the N-terminal amino acids from bovine 17α hydroxylase and a truncated form of the P-450TYR gene is designed using PCR mutagenesis: Oligonucleotide TYROL 1d (5'-CGGGATCCATATGGCTCTGTTATTAGCAGTTTTTCTGTCGTACCTGGCCCG-3'; SEQ ID NO 23) containing a 5' mutant cDNA sequence as well as a BamHI and NdeI restriction site is used together with oligonucleotide TYROL 3 comprising the sequence surrounding the unique BamHI restriction site downstream of the ATG start codon of the cDNA coding for P-450TYR to amplify a modified N-terminal sequence of P-450TYR. The amplification product is cut with NdeI and BamHI restriction enzymes. To introduce a HindIII site immediately downstream of the stop codon of the P-450TYR gene, oligonucleotides TYROL 2 and TYROL 4 are used in a polymerase chain reaction to obtain a C-terminal fragment of the P-450TYR gene comprising a HindIII restriction site immediately downstream of the stop codon. The amplification product is cut with PstI and HindIII restriction enzymes. The complete expression plasmid is constructed by simultaneous ligation of the N-terminal NdeI/BamHI fragment, the BamHI/PstI fragment of the P-450TYR gene and the C-terminal PstI/HindIII fragment into NdeI/HindIII cleaved pSP19g10L vector DNA. The expression vector obtained is transformed into E. coli strain JM109. Transformed E. coli produce 300 nmol to 500 nmol cytochrome P-450TYR per liter cell culture upon growth at 28° C. in the presence of 1 mM isopropyl-β-D-thiogalactopyranoside and at 125 rpm. Expression levels as high as 900 nmol per liter, equivalent to 55 mg P-450TYR per liter, have been obtained. […]

For data set [2], the system named is Western Corn Root Worm (WCRW). Kind of data set: Larval mortality of Western Corn Root Worm on diet. The format is in vivo, Diabrotica virgifera virgifera. The source says:
Insects or insect larvae are fed on a diet containing added cyanogenic glycoside, a diet containing added cyanogenic glycoside, and callus, or a diet supplemented with the supernatant of callus ground-up in the presence of the cyanogenic glycoside. Mortality is compared to the mortality of insects or insect larvae fed on the diet only.
WCRW larvae are fed on a diet with added amygdalin, a diet with added amygdalin and Black Mexican Sweet (BMS) callus or on a diet supplemented with the supernatant of BMS-callus ground-up in the presence of amygdalin. Larval mortality is compared to the mortality of larvae fed on the diet only.
The activity of dhurrin on larval mortality of WCRW was determined as described for amygdalin in example 12.

Another data set concerns glucosinolate production. Kind of data set: Induction of glucosinolate production in Tropaeolum majus. The data set is classed as in vivo. How it is done: Seeds of Tropaeolum majus L. cv Empress of India (Dansk Havefroforsyning, Kolding, DK) are allowed to imbibe and germinate in complete darkness for one week at 25° C. In vivo biosynthesis experiments are performed wherein 1 μCi of the tracer ^14 C-labelled phenylalanine is administered to excised dark-grown seedlings for 24 hours followed by boiling of the plant material in 90% methanol and analysis of the extracts by HPLC as described by Lykkesfeldt and Moller, 1993. Prior to administration of the tracer to the excised seedling or leaf, the intact plant is subjected to a potential inducer for 24 hours.

Data set [3] deals with biosynthesis of glucosinolates. In words: In vivo effect of cytochrome P450 inhibitors on glucosinolate in etiolated tropaeolum seedlings. To be noted: 1 mM inhibitor; for effect on glucosinolate: radioactively labelled phenylalanine, etiolated tropaeolum seedlings.
The next data set deals with T2, cytochrome P-450TYR (Sorghum bicolor, UniProt Q43135).
T2 construct: from tissue; host or cells: microsomes of etiolated Sorghum bicolor seedlings, solubilised and purified by dye columns
T2 sequence (Q43135 1-558): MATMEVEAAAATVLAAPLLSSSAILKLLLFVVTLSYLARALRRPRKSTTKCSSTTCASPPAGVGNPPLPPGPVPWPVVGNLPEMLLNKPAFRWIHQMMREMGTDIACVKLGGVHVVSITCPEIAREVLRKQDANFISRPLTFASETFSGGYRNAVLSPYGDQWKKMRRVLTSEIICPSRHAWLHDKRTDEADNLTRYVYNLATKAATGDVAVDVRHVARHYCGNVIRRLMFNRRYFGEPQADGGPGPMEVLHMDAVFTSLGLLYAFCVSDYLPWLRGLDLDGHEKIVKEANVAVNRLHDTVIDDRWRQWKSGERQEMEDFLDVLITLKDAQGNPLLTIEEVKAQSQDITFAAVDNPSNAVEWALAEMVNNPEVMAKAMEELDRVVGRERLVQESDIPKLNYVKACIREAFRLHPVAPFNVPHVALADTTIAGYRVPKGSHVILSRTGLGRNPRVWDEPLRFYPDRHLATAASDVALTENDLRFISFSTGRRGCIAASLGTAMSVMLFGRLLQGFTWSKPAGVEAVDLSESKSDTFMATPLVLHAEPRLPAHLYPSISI
Kind of data set: Substrate binding spectra of isolated sorghum cytochrome P-450TYR (difference spectrum A390-420). How it is done: Cytochrome P-450 substrate binding spectra are recorded with stepwise increased substrate concentration until saturating conditions are reached.
as §1, with “Binding of tyrosine at the catalytic site of cytochrome P-450TYR induces a change of the spin state of the oxidized iron from low to high spin, and thereby changes the absorption maximum from 420 nm to 390 nm producing a type I spectrum (Jefcoate, Methods in Enzymology 52:258-279, 1978).” left out
If a cytochrome P-450 sample can be saturated with two different substrates, there may be two different cytochrome P-450 enzymes in the sample, or there may be one cytochrome P-450 enzyme able to bind to both substrates. To discriminate between these possibilities, saturating amounts of the two substrates are added sequentially and the A390-420absorption change is monitored. If, independent of the order of addition, the addition of the second sample gives rise to an increased A390-420value compared to the value after the addition of the first substrate, the two substrates are bound by different enzymes. If A390-420 remains unchanged upon addition of the second substrate, independent of the order of addition, both substrates bind to the same active site, i.e. to the same cytochrome P-450 enzyme.

`N#CCc1ccc(O)cc1` [p-hydroxyphenylacetonitrile]: the “type of substrate binding spectrum” value in data set [1] was “type Ispectrum”.

`N#C[C@@H](O[C@@H]1O[C@H](CO)[C@@H](O)[C@H](O)[C@H]1O)c1ccc(O)cc1` [dhurrin]: in data set [2], the 50% lethal concentration (LC50) came out at 368 µg/mL (≈ 1180 µM). In data set [2] (WCRW larvae), the “95% confidence limits of LC50” value lay in the range of 0.28 to 0.48 µg/mL and the “slope of the regression line” value was found to be 2.5.

As to `CCO` [ethanol], the “increase in glucosinolate production as compared to control experiments with water” value with glucosinolate production (10 mM phenylalanine or 2% ethanol administered to the vermiculate, 24 hours, etiolated seedlings) is reported as “threefold increase”.

Take `N#C[C@H](O[C@@H]1O[C@H](CO[C@@H]2O[C@H](CO)[C@@H](O)[C@H](O)[C@H]2O)[C@@H](O)[C@H](O)[C@H]1O)c1ccccc1` [amygdalin]: the lethality entry in data set [2] (WCRW larvae, 2 mg/ml, in the absence of BMS-callus) is “lethal”; in data set [2] (WCRW larvae, concentrations of less than 1 mg/ml, BMS-callus absent), “significantly less lethality”. In addition, the 50% lethal concentration (LC50) in data set [2] (WCRW larvae, in the presence of BMS-callus, read-out: LC50) is about 1000 µg/mL.

`Clc1ccc(N2N=NC3C4CC(C5N=NC45)C32)cc1` (stereo not drawn) [tetcyclacis]: the effect on glucosinolate entry in data set [3] is recorded as “reduction of glucosinolate”.

As for `CC/C=C\C[C@H]1C(=O)CC[C@@H]1CC(=O)O` [jasmonic acid], the “induction of glucosinolate production” value with glucosinolate production (spraying with 100 μM, incubation 24 hours, etiolated seedlings and green leaves) was “fivefold induction”.

In the case of `O=C(O)[C@H](Cc1ccc(O)cc1)NO` [N-hydroxytyrosine], in data set [1], the “molar extinction coefficient E420-390” value came to 64.6 cm⁻¹ mM⁻¹. For the same compound, the “initial A390-420” value at cytochrome P-450TYR (50 μl 20 mM N-hydroxytyrosine) is 0,0689; on cytochrome P-450TYR (120 μl 5 mM N-hydroxytyrosine), 0,0919; on cytochrome P-450TYR (140 μl 5 mM N-hydroxytyrosine) it was 0,0911. Besides, the “resulting A390-420” value on cytochrome P-450TYR (50 μl 20 mM N-hydroxytyrosine, dilution factor 550/500) is on record as 0,0758; on cytochrome P-450TYR (120 μl 5 mM N-hydroxytyrosine, dilution factor 620/500), 0,1140; on cytochrome P-450TYR (140 μl 5 mM N-hydroxytyrosine, dilution factor 640/500) it was 0,1166. The “type of substrate binding spectrum” value at cytochrome P-450TYR (isolated sorghum P-450TYR) is given as “type I binding spectrum”.

With enilketoconazol, in data set [3] (measured by ethanol extraction of the plant material), the “effect on uptake of phenylalanine” value was “without causing a reduction in the uptake of phenylalanine”. Besides, the effect on glucosinolate result in data set [3] is recorded as “reduction of glucosinolate”.

On to `ON=CCc1ccc(O)cc1` [p-hydroxyphenylacetaldehyde oxime], for which, in data set [1], the “type of substrate binding spectrum” value is given as “type Ispectrum”.
